According to publication PMC9090388, “Design, synthesis, biological evaluation and QSAR analysis of novel N-substituted benzimidazole derived carboxamides” (Journal of Enzyme Inhibition and Medicinal Chemistry, 2022):
“And” between values parts separate entries of the source, which are not always exact repeats. Equal entries are not always repeated.

Tests used:
[1] = Ferric reducing/antioxidant power (FRAP assay); format: biochemical; details: triplicate; – = not active in the FRAP assay
Experimental: The FRAP method was carried out according to previously described procedures with some modifications to be compatible with an assay on a 96-well microplate. All results were expressed as Fe^2+ equivalents (Fe^2+ µmol).

MCF-7 (breast carcinoma) = assay: Antiproliferative activity in vitro, MTT, 72 h; format: cell-based; details: Homo sapiens, MCF7, concentration that causes 50% growth inhibition
Experimental: (§1) The experiments were performed on four human cell lines, including HCT 116 (colon carcinoma), H 460 (lung carcinoma), MCF-7 (breast carcinoma) and HEK 293 (human embryonic kidney cells), in line with previously published experimental procedures[10]^,[25]. Briefly, the cells were grown in DMEM medium with the addition of 10% foetal bovine serum (FBS), 2 mM L-glutamine, 100 U/mL penicillin and 100 µg/mL streptomycin, and cultured as monolayers at 37 °C in a humidified atmosphere with 5% CO2. Cells were seeded at 2 × 10^3 cells/well in a standard 96-well microtiter plates and left to attach for 24 h. Next day, a test compound was added in five serial 10-fold dilutions. The rate of cell growth was evaluated after 72 h of incubation with MTT reagent. The obtained results are expressed as IC50 values, calculated from the concentration-response curves using linear regression analysis by fitting the test concentrations that give PG values above and below the reference value (i.e. 50%). Each test was performed in quadruplicate in at least two individual experiments.

HCT116 (colon carcinoma) = assay: Antiproliferative activity in vitro, MTT, 72 h; format: cell-based; details: Homo sapiens, HCT-116, 72 h, concentration that causes 50% growth inhibition
Experimental: as §1

H 460 (lung carcinoma) = assay: Antiproliferative activity in vitro, MTT, 72 h; format: cell-based, human; details: for IC50: Homo sapiens, NCI-H460, 72 h, concentration that causes 50% growth inhibition, 72 h, MTT; for selectivity of antiproliferative activity among cell lines: H 460 versus HCT116, MCF-7, HEK 293
Experimental: as §1

[2] = DPPH free radical scavenging (reducing activity of the stable radical DPPH); format: biochemical; details: DPPH 50 µM in absolute ethanol; – = did not show any DPPH activity
Experimental: The reducing activity of investigated systems was achieved by the DPPH method according to previously described procedures with modifications to assure the use in a 96-well microplate. Briefly, equal volumes of various concentrations of tested molecules (dissolved in DMSO) were added to the solution of DPPH (final concentration 50 µM in absolute ethanol). Ethanol and DMSO were used as control solutions in line with earlier reports.[27]

[3] = test system: HEK 293 (human embryonic kidney cells); assay: Antiproliferative/cytotoxic activity in vitro on non-tumour cells, MTT, 72 h; format: cell-based; details: Homo sapiens, HEK293; non-tumour cell line; concentration that causes 50% growth inhibition; 72 h, MTT
Experimental: as §1

Row | Structure (SMILES) | FRAP [1] | IC50 (MCF-7 (breast carcinoma)) [µM] | IC50 (HCT116 (colon carcinoma)) [µM] | IC50 (H 460 (lung carcinoma)) [µM] | IC50 [2] | selectivity of antiproliferative activity among cell lines (H 460 (lung carcinoma)) | IC50 [3] [µM]
1 | Cn1c(NC(=O)c2ccccc2)nc2ccc(C#N)cc21 [Compound 32, N-(6-Cyano-1-methyl-1H-benzo[d]imidazol-2-yl)benzamide] | 160.27 ± 16.35 mmolFe^2+/mmolC |  |  |  |  |  | 
2 | COc1cc([C@@H]2c3cc4c(cc3[C@@H](O[C@@H]3O[C@@H]5CO[C@@H](C)O[C@H]5[C@H](O)[C@H]3O)[C@H]3COC(=O)[C@H]23)OCO4)cc(OC)c1O [Etoposide, reference compound] |  | 1 ± 0.7 | 5 ± 2 | 0.1 ± 0.04 |  |  | 
3 | COc1ccccc1C(=O)Nc1nc2ccc(C#N)cc2n1CC(C)C [Compound 41, N-(6-Cyano-1-isobutyl-1H-benzo[d]imidazol-2-yl)-2-methoxybenzamide] | 154.30 ± 5.67 mmolFe^2+/mmolC |  |  |  | 4580 ± 150 µM |  | 
4 | COc1ccccc1C(=O)Nc1nc2ccccc2n1CC(C)C [Compound 37, N-(1-Isobutyl-1H-benzo[d]imidazol-2-yl)-2-methoxybenzamide] |  |  |  |  | 10550 ± 30 µM |  | 
5 | COc1ccc(C(=O)Nc2nc3ccccc3n2-c2ccccc2)c(OC)c1 [Compound 46, 2,4-Dimethoxy-N-(1-phenyl-1H-benzo[d]imidazol-2-yl)benzamide] |  |  |  |  | 8480 ± 710 µM |  | 
6 | COc1cc(C(=O)Nc2nc3ccccc3n2-c2ccccc2)cc(OC)c1OC [Compound 47, 3,4,5-Trimethoxy-N-(1-pheny-1H-benzo[d]imidazol-2-yl)benzamide] | 236.90 ± 1.50 mmolFe^2+/mmolC | 2.9 ± 1.3 | 1.6 ± 0.9 | 0.8 ± 1.5 |  | selective activity against H 460 | 5.3 ± 2.4
7 | COc1ccccc1C(=O)Nc1nc2ccccc2n1-c1ccccc1 [Compound 45, 2-Methoxy-N-(1-phenyl-1H-benzo[d]imidazol-2-yl)benzamide] |  |  |  |  | 8710 ± 340 µM |  | 
8 | COc1cc(C(=O)Nc2nc3ccccc3n2C)cc(OC)c1OC [Compound 31, 3,4,5-Trimethoxy-N-(1-methyl-1H-benzo[d]imidazol-2-yl)benzamide] | 124.28 ± 1.23 mmolFe^2+/mmolC | 23.8 ± 12.4 | 18.1 ± 1.4 | 17.7 ± 0.8 | 6040 ± 290 µM |  | 21.7 ± 9.4
9 | COc1cc(C(=O)Nc2nc3ccccc3n2CC(C)C)cc(OC)c1OC [Compound 39, N-(1-Isobutyl-1H-benzo[d]imidazol-2-yl)-3,4,5-trimethoxybenzamide] | 217.20 ± 3.69 mmolFe^2+/mmolC | 4.6 ± 1.4 | 3.1 ± 0.7 | 1.7 ± 0.1 | 4920 ± 130 µM |  | 2 ± 0.9
10 | COc1ccccc1C(=O)Nc1nc2ccccc2n1C [Compound 29, 2-Methoxy-N-(1-methyl-1H-benzo[d]imidazol-2-yl)benzamide] | 110.16 ± 1.44 mmolFe^2+/mmolC |  |  |  | 6050 ± 1030 µM |  | 
11 | COc1ccc(C(=O)Nc2nc3ccccc3n2C)c(OC)c1 [Compound 30, 2,4-Dimethoxy-N-(1-methyl-1H-benzo[d]imidazol-2-il)benzamide] |  |  |  |  | 49600 ± 18400 µM |  | 
12 | COc1ccccc1C(=O)Nc1nc2ccc(C#N)cc2n1-c1ccccc1 [Compound 49, N-(6-Cyano-1-phenyl-1H-benzo[d]imidazol-2-yl)-2-methoxybenzamide] | 221.31 ± 27.39 mmolFe^2+/mmolC |  |  |  | 29900 ± 1300 µM |  | 
13 | COc1ccc(C(=O)Nc2nc3ccc(C#N)cc3n2CC(C)C)c(OC)c1 [Compound 42, N-(6-Cyano-1-isobutyl-1H-benzo[d]imidazol-2-yl)-2,4-dimethoxybenzamide] |  |  |  |  | 5350 ± 70 µM |  | 
14 | Cc1cc(C(C)(C)C)c(O)c(C(C)(C)C)c1 [BHT, butylated hydroxytoluene, reference compound] | 679.15 mmolFe^2+/mmolC |  |  |  |  |  | 
15 | COc1cc(C(=O)Nc2nc3ccc(C#N)cc3n2-c2ccccc2)cc(OC)c1OC [Compound 51, N-(6-Cyano-1-phenyl-1H-benzo[d]imidazol-2-yl)-3,4,5-trimethoxybenzamide] | 132.56 ± 18.06 mmolFe^2+/mmolC | 29.4 ± 19.4 | 30.1 ± 13.2 | 4.53 ± 7.3 |  | selective activity against H 460 | 61.1 ± 35.7
16 | O=C(Nc1nc2ccccc2n1-c1ccccc1)c1ccccc1 [Compound 44, N-(1-Phenyl-1H-benzo[d]imidazol-2-yl)benzamide] | 184.70 ± 3.22 mmolFe^2+/mmolC |  |  |  |  |  | 
17 | COc1cc(C(=O)Nc2nc3ccccc3[nH]2)cc(OC)c1OC [Compound 27, N-(1H-Benzo[d]imidazol-2-yl)-3,4,5-trimethoxybenzamide] | 5.59 ± 0.62 mmolFe^2+/mmolC | 32.8 ± 15.6 | 23.1 ± 15 | 17.6 ± 6.7 | 6820 ± 410 µM |  | 23.6 ± 4.4
18 | N#Cc1ccc2nc(NC(=O)c3ccccc3)n(-c3ccccc3)c2c1 [Compound 48, N-(6-Cyano-1-phenyl-1H-benzo[d]imidazol-2-yl)benzamide] | 138.98 ± 32.68 mmolFe^2+/mmolC |  |  |  |  |  | 
19 | Cn1c(NC(=O)c2ccccc2)nc2ccccc21 [Compound 28, N-(1-Methyl-1H-benzo[d]imidazol-2-yl)benzamide] | 538.81 mmolFe^2+/mmolC and 358.81 ± 4.83 mmolFe^2+/mmolC | 11.9 ± 7.5 | 18.7 ± 5.1 | 10.7 ± 2.3 | ~3780 µM and 3780 µM |  | 29.5 ± 12.5
20 | COc1ccc(C(=O)Nc2nc3ccccc3[nH]2)c(OC)c1 [Compound 26, N-(1H-Benzo[d]imidazol-2-yl)-2,4-dimethoxybenzamide] | 166.61 ± 9.51 mmolFe^2+/mmolC |  |  |  | 41700 ± 1510 µM |  | 
21 | COc1ccccc1C(=O)Nc1nc2ccccc2[nH]1 [Compound 25, N-(1H-Benzo[d]imidazol-2-yl)-2-methoxybenzamide] |  |  |  |  | 75700 ± 6080 µM |  | 
22 | COc1ccc(C(=O)Nc2nc3ccccc3n2CC(C)C)c(OC)c1 [Compound 38, N-(1-Isobutyl-1H-benzo[d]imidazol-2-yl)-2,4-dimethoxybenzamide] | 5.80 ± 0.15 mmolFe^2+/mmolC |  |  |  | 26580 ± 20 µM |  | 
23 | COc1cc(C(=O)Nc2nc3ccc(C#N)cc3n2CC(C)C)cc(OC)c1OC [Compound 43, N-(6-Cyano-1-isobutyl-1H-benzo[d]imidazol-2-yl)-3,4,5-trimethoxybenzamide] | 243.30 ± 3.39 mmolFe^2+/mmolC | 3.1 ± 1.7 | ~0.6 |  |  |  | 4.7 ± 1
24 | COc1cc(C(=O)Nc2nc3ccc(C#N)cc3n2C)cc(OC)c1OC [Compound 35, N-(6-Cyano-1-methyl-1H-benzo[d]imidazol-2-yl)-3,4,5-trimethoxybenzamide] | 338.50 ± 21.56 mmolFe^2+/mmolC | 5.5 ± 3.2 | 5.2 ± 4.2 | 3.9 ± 0.9 |  |  | 12.3 ± 1.5
25 | COc1ccc(C(=O)Nc2nc3ccc(C#N)cc3n2-c2ccccc2)c(OC)c1 [Compound 50, N-(6-Cyano-1-phenyl-1H-benzo[d]imidazol-2-yl)-2,4-dimethoxybenzamide] | 506.70 ± 7.46 mmolFe^2+/mmolC |  |  |  |  |  | 
26 | CC(C)Cn1c(NC(=O)c2ccccc2)nc2ccccc21 [Compound 36, N-(1-Isobutyl-1H-benzo[d]imidazol-2-yl)benzamide] | 179.70 ± 23.42 mmolFe^2+/mmolC | 2.7 ± 1.9 | 3.8 ± 0.9 | 5.1 ± 2.6 | 4510 ± 20 µM |  | 5.9 ± 2.4
